Measured values as given in US20220119868A1, “PROFILING RNA-SMALL MOLECULE BINDING SITES WITH OLIGONUCLEOTIDES” (priority 2018, published 2022).
Where “and” joins values, the source holds several entries; their conditions need not be identical. Identical values can stand only once.

Tests used:
[1] = biological target: Fully paired RNA; test: In solution, fluorescence-based binding affinity assay
Description: (§1) Affinity of Selected RNA Motif-Small Molecule Interactions. The affinity of exemplar compounds that have inherent fluorescence was measured. […] . Binding affinities were confirmed using a label-free method, biolayer interferometry.
(§2) where n1 is the size of Population 1 (number of sequencing reads for a given RNA from RNA-seq analysis of the selected library), n2 is the size of Population 2 (number of sequencing reads for the same RNA from RNA-seq analysis of the starting library), p1 is the observed proportion of Population 1 (the number of reads for a given RNA from selected library/total number of reads), and p2 is the observed proportion for Population 2 (the number of reads for the same RNA in the starting library/total number of reads). Generation of Logos and DiffLogos: Zobs corresponding to the highest (enriched) 0.5% and lowest (discriminated against) 0.5% scores were analyzed to generate consensus sequences, or Logos. The resulting list of sequences were converted to position weight matrix (PWM) lists for each compound. “Enriched” and “discriminated” sequences were kept separate using JMP®, Version <13.2.1>. SAS Institute Inc., Cary, N.C., 1989-2007. The R package Difflogo,^16 which is part of Bioconductor, was utilized to create the sequence logos from PWM lists for each compound and visually compare the differences between them. Binding Affinity Measurements. Dissociation constants were determined using an in solution, fluorescence-based assay. […] Serial dilutions (1:2) of the small molecule were then completed in 1× Assay Buffer supplemented with 1 mM MgCl2. The solutions were incubated for 30 min at room temperature, transferred to a 96-well plate, and fluorescence intensity measured on a BioTek-FLx800 plate reader. The change in fluorescence intensity as a function of small molecule concentration was fit to a one site binding model per equation 3: […]
(§3) Effect of compounds on HCV replication. […] Cytotoxicity assays. […] Oligonucleotide profiling of target engagement in vitro. […] Primers can be found in Table 4. […] Inhibition of kinases. […] . Figure S7C).

[2] = biological target: RNA motif 5′UUA3′/3′A_U5′ (from RNA library C); test: as above
Description: as §1, §2, §3

[3] = biological target: CAMK4 (Homo sapiens, UniProt Q16566); test: In vitro inhibition of a panel of kinases; assay type: biochemical; settings: 20 μM
Source text: as §3

[4] = biological target: HCV RNA motif 5′GUG3′/3′C_C5′ (SL I and SL III); test: In solution, fluorescence-based binding affinity assay, HCV RNA motifs; parameters: species or system Hepatitis C virus
Source text: (§4) The compounds bind their cognate loops in the 3′ UTR with mid-nanomolar to low micromolar affinities (Table 1). It was next determined if the identified compounds could inhibit HCV RNA replication in HCV subgenomic replicon cells, in particular SGR-Neo-RLuc-JFH1-2A replicon cells established in Huh-7.5 (human hepatoma cells). In this system, an autonomously replicating viral RNA replicon is used to monitor efficiently RNA replication of the virus in the absence of spread of viral RNA to adjacent cells. This is achieved by replacing the structural proteins required to assembly progeny virions with a drug selectable marker (Neo) and a Renilla luciferase (RLuc) reporter gene. Once this replicon has been delivered to human hepatoma cells and selection with G418 (conferred by Neo selectable marker) has occurred, the expression and Renilla luciferase activity is directly correlated with the level of HCV replication^57.
as §2, §3

[5] = biological target: HCV RNA motif 5′CUG3′/3′G_C5′ (SL II); test: as above; parameters: species or system Hepatitis C virus
Source text: as §4, §2, §3

[6] = biological target: HCV RNA motif 5′UAG3′/3′A_C5′ (SL I); test: as above; parameters: species or system Hepatitis C virus
Source text: as §4, §2, §3

[7] = system: WT SLI RNA (HCV SL I model); test: Oligonucleotide profiling of target engagement in vitro (RNase H cleavage); assay type: biochemical, Hepatitis C virus; settings: antisense oligonucleotide and RNase H
Source text: Compound 8 binds the desired site in HCV RNA in vitro and in cells. To validate that the lead compounds bind to the desired site in the HCV RNA genome, an approach to profile binding site by using an antisense oligonucleotide was developed (FIG. 8A). Antisense oligonucleotides bind to complementary RNAs and recruit RNase H, which cleaves the RNA strand. Upon small molecule binding, the RNA's structure is stabilized, making it more difficult for the oligonucleotide to invade the structure. Thus, small molecule binding sites can be read out by inhibition of oligonucleotide cleavage. For in vitro studies, a small segment of the target site was transcribed that folds into the desired structure.
Application of an antisense agent (Table 4) and RNase H cleaves the RNA at the desired site. […] Additional control experiments were completed in which the RNA was mutated to remove 8's binding site and the corresponding complementary oligonucleotide to induce RNase H cleavage.
as §3

Chain of CAMK4 (Q16566 whole entry): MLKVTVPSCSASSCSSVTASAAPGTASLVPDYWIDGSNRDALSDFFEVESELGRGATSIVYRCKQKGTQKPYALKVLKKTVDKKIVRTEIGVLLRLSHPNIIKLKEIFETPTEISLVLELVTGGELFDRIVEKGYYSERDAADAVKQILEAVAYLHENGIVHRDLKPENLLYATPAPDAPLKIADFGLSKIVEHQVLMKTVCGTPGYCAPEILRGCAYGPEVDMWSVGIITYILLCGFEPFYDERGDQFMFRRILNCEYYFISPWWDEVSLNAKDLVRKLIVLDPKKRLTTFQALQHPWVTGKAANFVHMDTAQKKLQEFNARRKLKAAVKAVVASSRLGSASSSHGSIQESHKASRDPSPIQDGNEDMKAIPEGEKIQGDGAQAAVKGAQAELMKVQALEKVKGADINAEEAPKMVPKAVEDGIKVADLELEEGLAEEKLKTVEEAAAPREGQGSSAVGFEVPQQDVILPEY

Structure (SMILES) | Kd [1] [nM] | Kd [2] | inhibition of CAMK4 in vitro [3] | Kd [4] [nM] | Kd [5] [nM] | Kd [6] [nM] | inhibition of antisense/RNase H-mediated cleavage of SL I in vitro [7]
O=C(Nc1cccc(NC(=O)Nc2cc(C(=O)Nc3ccc(C4=NCCN4)cc3)ccc2C(=O)Nc2ccc(C3=NCCN3)cc2)c1)Nc1cc(C(=O)Nc2ccc(C3=NCCN3)cc2)ccc1C(=O)Nc1ccc(C2=NCCN2)cc1 [Compound 7] | > 7000 | 380 ± 26 nM | most significantly inhibited | 470 ± 32 | 820 ± 82 | 460 ± 70 | –
O=C(Nc1ccc(C2=NCCN2)cc1)c1cc(C(=O)Nc2ccc(C3=NCCN3)cc2)cc(C(=O)Nc2ccc(C3=NCCN3)cc2)c1 [Compound 8] | > 5000 | 690 nM and 530 nM | most significantly inhibited | 1400 ± 160 | 1400 ± 211 | 849 ± 150 | limited the ability of the antisense to mediate cleavage of the target
